Source: publication PMC6085820 (Molecular Biology of the Cell, 2018)

Target: T1, Mtq2:Trm112 (Saccharomyces cerevisiae, UniProt Q03920)
T1 sequence (Q03920 1-221): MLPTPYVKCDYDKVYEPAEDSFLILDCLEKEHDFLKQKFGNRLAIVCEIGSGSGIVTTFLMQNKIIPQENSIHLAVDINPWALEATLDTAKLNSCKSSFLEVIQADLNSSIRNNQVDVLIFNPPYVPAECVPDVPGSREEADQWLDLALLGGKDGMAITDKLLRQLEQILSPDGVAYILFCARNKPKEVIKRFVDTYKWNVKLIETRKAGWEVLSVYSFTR
T1 sequence (P53738 1-135 partner): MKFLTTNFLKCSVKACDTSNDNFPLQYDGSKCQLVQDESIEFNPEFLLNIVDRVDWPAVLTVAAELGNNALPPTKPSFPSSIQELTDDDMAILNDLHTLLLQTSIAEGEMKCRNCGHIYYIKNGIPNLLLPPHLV
Assay: MTase-Glo coupled luminescence assay
Assay type: biochemical
Conditions: SAM as methyl donor

Row | Compound | MTase-Glo coupled luminescence assay (SAH formation) (100 µM MAs(III)) | MTase-Glo coupled luminescence assay (SAH formation) (100 µM As(III))
1 | C[As](O)O [MAs(III), methyl arsenite] | methyltransferase activity was SAM-dependent and additionally capable of using MAs(III) as a substrate | –
2 | O[As](O)O [As(III), sodium arsenite] | – | SAM-dependent methyltransferase activity of Mtq2:Trm112 using As(III) as substrate was measured
